Laboratory results taken from US11970439B1, “8-(4-chlorobenzylideneamino)naphthalene-1,3-disulfonic acid as an antioxidant compound” (KING FAISAL UNIVERSITY, priority 2023, dated 2024).

Assay: DPPH radical scavenging antioxidant test
Type: biochemical
Settings: 517 nm; for Inhibition (radical scavenging inhibition): compound 3 μM in ethanol, 0.2 mL DPPH (0.75 mM), 30 min incubation in the dark
Description: The antioxidant properties of the 8-(4-chlorobenzylideneamino)naphthalene-1,3-disulfonic acid were studied by adding 0.2 mL DPPH (0.75 mM)) to compound 8-(4-chlorobenzylideneamino)naphthalene-1,3-disulfonic acid (III) (3 μM) in ethanol. After 30 min of incubation in the dark, the absorbance was read against a blank at 517 nm. Ascorbic acid (vitamin C) was used as standard antioxidants (positive control). A blank sample was prepared by 0.2 ml of DPPH in 3 ml ethanol. A negative control sample was run using ethanol instead of the sample. The radical scavenging inhibition was calculated using the following equation: […]

Structure (SMILES) | antioxidant potential in DPPH in vitro test (in words) (DPPH, vitamin C as positive control) | Inhibition (radical scavenging inhibition) [%]
O=S(=O)(O)c1cc(S(=O)(=O)O)c2c(/N=C/c3ccc(Cl)cc3)cccc2c1 [Product III, 8-(4-chlorobenzylideneamino)naphthalene-1,3-disulfonic acid] | high potential as an antioxidant compared to vitamin C | 50
O=C1O[C@H]([C@@H](O)CO)C(O)=C1O [vit c, Ascorbic acid, reference compound] |  | 74
